Data as given in PubChem BioAssay (NCI).
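Tested at 5 concentrations; 48 h exposure; 96-well plates; endpoints linearly interpolated, else capped at highest concentration. Here, GI50 denotes the concentration required for 50% inhibition of growth. TGI denotes the concentration required for complete inhibition of growth.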

Tests used:
Test in all cases: growth of human tumour cells (NCI), 48 h
786-0 renal = test system: 786-0 renal
SNB-19 CNS = test system: SNB-19 CNS
TK-10 renal = test system: TK-10 renal
M14 melanoma = test system: M14 melanoma
CAKI-1 renal = test system: CAKI-1 renal
SK-MEL-2 melanoma = test system: SK-MEL-2 melanoma
SR leukemia = test system: SR leukemia
SF-295 CNS = test system: SF-295 CNS
SN12C renal = test system: SN12C renal
HCC-2998 colon = test system: HCC-2998 colon
OVCAR-3 ovarian = test system: OVCAR-3 ovarian
DU-145 prostate = test system: DU-145 prostate
SNB-75 CNS = test system: SNB-75 CNS
OVCAR-5 ovarian = test system: OVCAR-5 ovarian
OVCAR-8 ovarian = test system: OVCAR-8 ovarian
SF-268 CNS = test system: SF-268 CNS
NCI-H460 lung = test system: NCI-H460 lung
SK-OV-3 ovarian = test system: SK-OV-3 ovarian
BT-549 breast = test system: BT-549 breast
A498 renal = test system: A498 renal
SF-539 CNS = test system: SF-539 CNS
HOP-62 NSCLC = test system: HOP-62 NSCLC
HCT-15 colon = test system: HCT-15 colon
K-562 leukemia = test system: K-562 leukemia
SK-MEL-5 melanoma = test system: SK-MEL-5 melanoma
SW-620 colon = test system: SW-620 colon
UACC-257 melanoma = test system: UACC-257 melanoma
HCT-116 colon = test system: HCT-116 colon
KM12 colon = test system: KM12 colon
IGROV1 ovarian = test system: IGROV1 ovarian
LOX IMVI melanoma = test system: LOX IMVI melanoma
UO-31 renal = test system: UO-31 renal
HOP-92 NSCLC = test system: HOP-92 NSCLC
MDA-MB-435 = test system: MDA-MB-435
PC-3 prostate = test system: PC-3 prostate
MOLT-4 leukemia = test system: MOLT-4 leukemia
NCI-H226 lung = test system: NCI-H226 lung
SK-MEL-28 melanoma = test system: SK-MEL-28 melanoma
MCF7 breast = test system: MCF7 breast
ACHN renal = test system: ACHN renal
CCRF-CEM leukemia = test system: CCRF-CEM leukemia
T-47D breast = test system: T-47D breast
MALME-3M melanoma = test system: MALME-3M melanoma
EKVX NSCLC = test system: EKVX NSCLC
U251 CNS = test system: U251 CNS
UACC-62 melanoma = test system: UACC-62 melanoma
NCI-H522 lung = test system: NCI-H522 lung
MDA-MB-231 breast = test system: MDA-MB-231 breast
NCI/ADR-RES ovarian = test system: NCI/ADR-RES ovarian
RPMI-8226 leukemia = test system: RPMI-8226 leukemia

Q: What does the source list for `CS(=O)(=O)c1ccc2c(c1)c1c(n2S(=O)(=O)c2ccc(Cl)cc2)CCCC1`?
A: GI50 (786-0 renal): 4.73 µM; TGI (786-0 renal): > 100 µM; GI50 (SNB-19 CNS): 5.54 µM; TGI (SNB-19 CNS): > 100 µM; GI50 (TK-10 renal): > 100 µM; TGI (TK-10 renal): > 100 µM; GI50 (M14 melanoma): 3.69 µM; TGI (M14 melanoma): > 100 µM; GI50 (CAKI-1 renal): 3.12 µM; TGI (CAKI-1 renal): > 100 µM; GI50 (SK-MEL-2 melanoma): 2.15 µM; TGI (SK-MEL-2 melanoma): 7.44 µM; GI50 (SR leukemia): 0.594 µM; TGI (SR leukemia): > 100 µM; GI50 (SF-295 CNS): 4.08 µM; TGI (SF-295 CNS): > 100 µM; GI50 (SN12C renal): 5.19 µM; TGI (SN12C renal): > 100 µM; GI50 (HCC-2998 colon): 3.57 µM; TGI (HCC-2998 colon): > 100 µM; GI50 (OVCAR-3 ovarian): 3.56 µM; TGI (OVCAR-3 ovarian): > 100 µM; GI50 (DU-145 prostate): 4.3 µM; TGI (DU-145 prostate): > 100 µM; GI50 (SNB-75 CNS): 1.42 µM; TGI (SNB-75 CNS): 6.15 µM; GI50 (OVCAR-5 ovarian): 5.37 µM; TGI (OVCAR-5 ovarian): > 100 µM; GI50 (OVCAR-8 ovarian): 4.11 µM; TGI (OVCAR-8 ovarian): > 100 µM; GI50 (SF-268 CNS): > 100 µM; TGI (SF-268 CNS): > 100 µM; GI50 (NCI-H460 lung): 3.5 µM; TGI (NCI-H460 lung): > 100 µM; GI50 (SK-OV-3 ovarian): 4.95 µM; TGI (SK-OV-3 ovarian): > 100 µM; GI50 (BT-549 breast): 5.39 µM; TGI (BT-549 breast): > 100 µM; GI50 (A498 renal): > 100 µM; TGI (A498 renal): > 100 µM; GI50 (SF-539 CNS): 3.15 µM; TGI (SF-539 CNS): > 100 µM; GI50 (HOP-62 NSCLC): 4.3 µM; TGI (HOP-62 NSCLC): > 100 µM; GI50 (HCT-15 colon): 1.93 µM; TGI (HCT-15 colon): > 100 µM; GI50 (K-562 leukemia): 0.706 µM; TGI (K-562 leukemia): > 100 µM; GI50 (SK-MEL-5 melanoma): 3.92 µM; TGI (SK-MEL-5 melanoma): > 100 µM; GI50 (SW-620 colon): 2.82 µM; TGI (SW-620 colon): > 100 µM; GI50 (UACC-257 melanoma): 10.3 µM; TGI (UACC-257 melanoma): > 100 µM; GI50 (HCT-116 colon): 3.5 µM; TGI (HCT-116 colon): > 100 µM; GI50 (KM12 colon): 3.16 µM; TGI (KM12 colon): > 100 µM; GI50 (IGROV1 ovarian): 5.24 µM; TGI (IGROV1 ovarian): > 100 µM; GI50 (LOX IMVI melanoma): 4.32 µM; TGI (LOX IMVI melanoma): > 100 µM; GI50 (UO-31 renal): 3.82 µM; TGI (UO-31 renal): > 100 µM; GI50 (HOP-92 NSCLC): 3.04 µM; TGI (HOP-92 NSCLC): > 100 µM; GI50 (MDA-MB-435): 0.583 µM; TGI (MDA-MB-435): 3.29 µM; GI50 (PC-3 prostate): 3.42 µM; TGI (PC-3 prostate): > 100 µM; GI50 (MOLT-4 leukemia): 4.49 µM; TGI (MOLT-4 leukemia): > 100 µM; GI50 (NCI-H226 lung): 3.22 µM; TGI (NCI-H226 lung): > 100 µM; GI50 (SK-MEL-28 melanoma): 34.8 µM; TGI (SK-MEL-28 melanoma): > 100 µM; GI50 (MCF7 breast): 2.61 µM; TGI (MCF7 breast): > 100 µM; GI50 (ACHN renal): 7.56 µM; TGI (ACHN renal): > 100 µM; GI50 (CCRF-CEM leukemia): 3.16 µM; TGI (CCRF-CEM leukemia): > 100 µM; GI50 (T-47D breast): 3.71 µM; TGI (T-47D breast): > 100 µM; GI50 (MALME-3M melanoma): 7.11 µM; TGI (MALME-3M melanoma): > 100 µM; GI50 (EKVX NSCLC): 5.55 µM; TGI (EKVX NSCLC): > 100 µM; GI50 (U251 CNS): 4.68 µM; TGI (U251 CNS): > 100 µM; GI50 (UACC-62 melanoma): 3.14 µM; TGI (UACC-62 melanoma): > 100 µM; GI50 (NCI-H522 lung): 1.08 µM; TGI (NCI-H522 lung): 3.39 µM; GI50 (MDA-MB-231 breast): 4.25 µM; TGI (MDA-MB-231 breast): > 100 µM; GI50 (NCI/ADR-RES ovarian): 2.33 µM; TGI (NCI/ADR-RES ovarian): > 100 µM; GI50 (RPMI-8226 leukemia): 3.72 µM; TGI (RPMI-8226 leukemia): > 100 µM
